# PubChem BioAssay AID328 (DTP/NCI, 2004)
# Where “and” joins values, the source holds several entries; their conditions need not be identical. Equal values may be shown once. Toxic doses and inconclusive results are not listed.
# System: BDF1 mice, P388 leukemia ip, median survival T/C
# Experiment: NCI In Vivo Anticancer Drug Screen. Data for tumor model P388 Leukemia (intraperitoneal) in B6D2F1 (BDF1) mice
# Details: endpoint: median survival time, higher = longer survival
# Outline: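 In tumour-bearing mice, survival after compound treatment is set against the vehicle group and given as a quotient.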
# [1] = dose: 0.78 mg/kg/injection, schedule: Q01DX009 (ip), vehicle: saline with Tween-80
# [2] = dose: 1.56 mg/kg/injection, schedule: Q01DX009 (ip), vehicle: saline with Tween-80
# [3] = dose: 6.25 mg/kg/injection, schedule: Q01DX009 (ip), vehicle: saline with Tween-80
# [4] = dose: 50.0 mg/kg/injection, schedule: Q01DX009 (ip), vehicle: saline with Tween-80
# [5] = dose: 50.0 mg/kg/injection, schedule: Q04DX003 (ip), vehicle: saline with Tween-80
# [6] = dose: 200.0 mg/kg/injection, schedule: Q04DX003 (ip), vehicle: saline with Tween-80
# [7] = dose: 400.0 mg/kg/injection, schedule: Q04DX003 (ip), vehicle: saline with Tween-80
# [8] = dose: 100.0 mg/kg/injection, schedule: Q04DX003 (ip), vehicle: saline with Tween-80
# [9] = dose: 50.0 mg/kg/injection, schedule: Q01DX009 (ip), vehicle: Klucel (hydroxypropylcellulose) (HPC)
# [10] = dose: 100.0 mg/kg/injection, schedule: Q01DX009 (ip), vehicle: Klucel (hydroxypropylcellulose) (HPC)
# [11] = dose: 200.0 mg/kg/injection, schedule: Q01DX009 (ip), vehicle: Klucel (hydroxypropylcellulose) (HPC)
structure (smiles),measurement,setting,value
NC(C/[N+]([O-])=N/O)C(=O)O (configuration not stated),T/C,"dose: 15.6 mg/kg/injection, schedule: Q04DX003 (ip), vehicle: saline",118 % of control
same,T/C,"dose: 15.6 mg/kg/injection, schedule: Q04DX003 (ip), vehicle: water",118 % of control
same,T/C,"dose: 25.0 mg/kg/injection, schedule: Q01DX010 (ip), vehicle: other",150 % of control
same,T/C,"dose: 25.0 mg/kg/injection, schedule: Q01DX010 (ip), vehicle: saline",122 % of control
same,T/C,"dose: 31.3 mg/kg/injection, schedule: Q04DX003 (ip), vehicle: saline",122 % of control
same,T/C,"dose: 50.0 mg/kg/injection, schedule: Q01DX010 (ip), vehicle: other",150 % of control
same,T/C,"dose: 100.0 mg/kg/injection, schedule: Q01DX010 (ip), vehicle: other",165 % of control
same,T/C,"dose: 125.0 mg/kg/injection, schedule: Q04DX003 (ip), vehicle: water",168 % of control
same,T/C,"dose: 173.0 mg/kg/injection, schedule: Q04DX003 (ip), vehicle: sodium bicarbonate",161 % of control and 171 % of control
same,T/C,"dose: 200.0 mg/kg/injection, schedule: Q01DX010 (ip), vehicle: saline",100 % of control
same,T/C,"dose: 250.0 mg/kg/injection, schedule: Q04DX003 (ip), vehicle: saline",172 % of control
same,T/C,"dose: 250.0 mg/kg/injection, schedule: Q04DX003 (ip), vehicle: water",181 % of control
same,T/C,"dose: 288.0 mg/kg/injection, schedule: Q04DX003 (ip), vehicle: sodium bicarbonate",161 % of control and 172 % of control
same,T/C,"dose: 480.0 mg/kg/injection, schedule: Q04DX003 (ip), vehicle: sodium bicarbonate",190 % of control and 192 % of control
same,T/C,"dose: 500.0 mg/kg/injection, schedule: Q04DX003 (ip), vehicle: saline",181 % of control
same,T/C,"dose: 500.0 mg/kg/injection, schedule: Q04DX003 (ip), vehicle: water",177 % of control
same,T/C,"dose: 800.0 mg/kg/injection, schedule: Q04DX003 (ip), vehicle: sodium bicarbonate",116 % of control
CCOC(=O)c1c(NC(=O)CCl)ssc1=S,T/C,[1],116 % of control
same,T/C,[2],116 % of control
same,T/C,"dose: 3.12 mg/kg/injection, schedule: Q01DX009 (ip), vehicle: saline with Tween-80",116 % of control
same,T/C,[3],116 % of control
same,T/C,"dose: 12.5 mg/kg/injection, schedule: Q01DX009 (ip), vehicle: saline with Tween-80",114 % of control
same,T/C,"dose: 25.0 mg/kg/injection, schedule: Q01DX009 (ip), vehicle: saline with Tween-80",109 % of control
same,T/C,[4],111 % of control
same,T/C,[5],102 % of control
same,T/C,[6],100 % of control
same,T/C,[7],116 % of control
CC(=O)/C(C)=C/C=O,T/C,"dose: 0.25 mg/kg/injection, schedule: Q01DX009 (ip), vehicle: water",116 % of control
same,T/C,"dose: 0.5 mg/kg/injection, schedule: Q01DX009 (ip), vehicle: water",89 % of control and 96 % of control and 116 % of control
same,T/C,"dose: 1.0 mg/kg/injection, schedule: Q01DX009 (ip), vehicle: water",97 % of control and 103 % of control and 116 % of control
same,T/C,"dose: 2.0 mg/kg/injection, schedule: Q01DX009 (ip), vehicle: water",94 % of control and 97 % of control
same,T/C,"dose: 4.0 mg/kg/injection, schedule: Q01DX009 (ip), vehicle: water",96 % of control and 97 % of control and 116 % of control
same,T/C,"dose: 8.0 mg/kg/injection, schedule: Q01DX009 (ip), vehicle: water",103 % of control
Cc1sc2ncnc(N)c2c1C,T/C,[5],103 % of control
same,T/C,[8],105 % of control
same,T/C,[6],94 % of control
same,T/C,[7],105 % of control
CCS(=O)(=O)c1cccc2nncn12,T/C,"dose: 100.0 mg/kg/injection, schedule: Q01DX001 (ip), vehicle: saline with Tween-80",108 % of control
same,T/C,"dose: 200.0 mg/kg/injection, schedule: Q01DX001 (ip), vehicle: saline with Tween-80",106 % of control
same,T/C,"dose: 400.0 mg/kg/injection, schedule: Q01DX001 (ip), vehicle: saline with Tween-80",100 % of control
Nc1nc2c(c(=O)[nH]1)N(CCS(=O)(=O)F)C(CNc1ccc(C(=O)NC(CCC(=O)O)C(=O)O)cc1)CN2 (configuration not stated),T/C,"dose: 50.0 mg/kg/injection, schedule: Q04DX003 (ip), vehicle: sodium bicarbonate",105 % of control
same,T/C,"dose: 100.0 mg/kg/injection, schedule: Q04DX003 (ip), vehicle: sodium bicarbonate",99 % of control
same,T/C,"dose: 200.0 mg/kg/injection, schedule: Q04DX003 (ip), vehicle: sodium bicarbonate",99 % of control
CCCCCCCCCCCCCCCCP(=O)(OCCOCCCCCC)OCCOCCCCCC,T/C,"dose: 12.5 mg/kg/injection, schedule: Q01DX009 (ip), vehicle: alcohol",105 % of control
same,T/C,"dose: 12.5 mg/kg/injection, schedule: Q01DX009 (ip), vehicle: saline",87 % of control
same,T/C,"dose: 25.0 mg/kg/injection, schedule: Q01DX009 (ip), vehicle: alcohol",105 % of control
same,T/C,"dose: 82.5 mg/kg/injection, schedule: Q01DX001 (ip), vehicle: saline",100 % of control
same,T/C,"dose: 165.0 mg/kg/injection, schedule: Q01DX001 (ip), vehicle: saline",100 % of control
O=C(O)c1ccccc1C(=O)O (tested in a mixture with another compound),T/C,[9],89 % of control
same,T/C,[10],91 % of control
same,T/C,[11],96 % of control
O=C1C=C(C2OC(CO)C(O)C2O)C(=O)N1 (configuration not stated),T/C,"dose: 0.2 mg/kg/injection, schedule: Q01DX010 (ip), vehicle: saline",110 % of control
same,T/C,"dose: 0.37 mg/kg/injection, schedule: Q01DX001 (ip), vehicle: saline",95 % of control
same,T/C,"dose: 0.5 mg/kg/injection, schedule: Q01DX010 (ip), vehicle: saline",110 % of control
same,T/C,"dose: 0.75 mg/kg/injection, schedule: Q01DX001 (ip), vehicle: saline",91 % of control
same,T/C,"dose: 1.5 mg/kg/injection, schedule: Q01DX001 (ip), vehicle: saline",95 % of control
same,T/C,"dose: 2.0 mg/kg/injection, schedule: Q01DX010 (ip), vehicle: saline",150 % of control
same,T/C,"dose: 3.0 mg/kg/injection, schedule: Q01DX001 (ip), vehicle: saline",110 % of control
same,T/C,"dose: 6.0 mg/kg/injection, schedule: Q01DX001 (ip), vehicle: saline",100 % of control
same,T/C,"dose: 8.0 mg/kg/injection, schedule: Q01DX010 (ip), vehicle: saline",150 % of control and 155 % of control and 157 % of control
same,T/C,"dose: 12.0 mg/kg/injection, schedule: Q01DX001 (ip), vehicle: saline",100 % of control
same,T/C,"dose: 16.0 mg/kg/injection, schedule: Q01DX010 (ip), vehicle: saline",121 % of control
COCCNCCN1CCN(CCCN2c3ccccc3Sc3ccc(C(F)(F)F)cc32)CC1,T/C,"dose: 20.0 mg/kg/injection, schedule: Q04DX003 (ip), vehicle: saline",105 % of control and 106 % of control
same,T/C,"dose: 40.0 mg/kg/injection, schedule: Q04DX003 (ip), vehicle: saline",108 % of control and 113 % of control
same,T/C,"dose: 80.0 mg/kg/injection, schedule: Q04DX003 (ip), vehicle: saline",120 % of control
N#CN=CN1CCC(O)(c2ccccc2)CC1,T/C,[4],88 % of control
same,T/C,"dose: 100.0 mg/kg/injection, schedule: Q01DX009 (ip), vehicle: saline with Tween-80",88 % of control
same,T/C,"dose: 200.0 mg/kg/injection, schedule: Q01DX009 (ip), vehicle: saline with Tween-80",94 % of control
CSc1nc(NCc2ccc(Cl)cc2)c2[nH]c(C)nc2n1,T/C,[1],122 % of control
same,T/C,[2],101 % of control
same,T/C,"dose: 3.13 mg/kg/injection, schedule: Q01DX009 (ip), vehicle: saline with Tween-80",97 % of control
same,T/C,[3],93 % of control
O=C1C=CC(=O)C23CC=CCC12C(=O)c1ccccc1C3=O (configuration not stated),T/C,"dose: 6.25 mg/kg/injection, schedule: Q04DX003 (ip), vehicle: water",107 % of control
same,T/C,"dose: 12.5 mg/kg/injection, schedule: Q04DX003 (ip), vehicle: water",107 % of control
same,T/C,"dose: 25.0 mg/kg/injection, schedule: Q04DX003 (ip), vehicle: water",92 % of control
COc1cccc(CC(=O)C(=O)O)c1,T/C,[9],95 % of control
same,T/C,"dose: 50.0 mg/kg/injection, schedule: Q04DX003 (ip), vehicle: Klucel (hydroxypropylcellulose) (HPC)",100 % of control
same,T/C,[10],104 % of control
same,T/C,"dose: 100.0 mg/kg/injection, schedule: Q04DX003 (ip), vehicle: Klucel (hydroxypropylcellulose) (HPC)",115 % of control
same,T/C,[11],90 % of control
same,T/C,"dose: 200.0 mg/kg/injection, schedule: Q04DX003 (ip), vehicle: Klucel (hydroxypropylcellulose) (HPC)",110 % of control
COc1cc(C(=O)C=C(C(F)(F)F)C(F)(F)F)cc(OC)c1OC,T/C,[5],120 % of control
same,T/C,[8],120 % of control
same,T/C,[6],100 % of control
CCCCN1CCC2(CC1)COCc1ccccc12,T/C,"dose: 12.5 mg/kg/injection, schedule: Q04DX003 (ip), vehicle: saline with Tween-80",104 % of control
same,T/C,"dose: 25.0 mg/kg/injection, schedule: Q04DX003 (ip), vehicle: saline with Tween-80",98 % of control
same,T/C,[5],95 % of control
